Test results as given in patent US20140024613A1, “Methods for Treating HCV” (AbbVie Inc., priority 2012, published 2014).

Tests used:
[1] = design: species or system HCV patients (human); settings: in vivo
From the text: Ritonavir-boosted HIV protease inhibitors are associated with increases in serum lipids. See FIG. 1, where LPV refers to lopinavir, “/r” refers to co-administration with ritonavir (e.g., LPV/r refers to lopinavir co-administered with ritonavir). DRV refers to darunavir, ATV refers to atazanavir, FPV refers to fosamprenavir, FTC refers to emtricitabine, TDF refers to tenofovir disoproxil fumarate, […], 3TC refers to lamivudine, TC refers to total cholesterol, and TG refers to total triglycerides. These increase in cholesterol and triglycerides may be related to inhibition of the proteasome, which is involved in degradation of proteins related to lipid metabolism. However, the impact of ritonavir-boosted HCV treatments on lipid levels has not been studied. The purpose of this Example was to examine the lipid levels of HCV patients during 12 weeks of treatment with ritonavir-containing, interferon-free regimens. […]
Fasting total cholesterol (TC) and triglycerides (TG) were measured at each study visit. The number of subjects with baseline low or normal TC or TG who shifted to high TC or TG were calculated using NCEP cut-offs. Lipid fractions were not measured.

[2] = known effect of ritonavir, FDA approved Kaletra Drug Label May 2012; cited from earlier work

- total cholesterol and triglyceride levels [1]: not elevated
Structure (SMILES): CC(C)c1nc(CN(C)C(=O)N[C@H](C(=O)N[C@@H](Cc2ccccc2)C[C@H](O)[C@H](Cc2ccccc2)NC(=O)OCc2cncs2)C(C)C)cs1 [ritonavir]
- cholesterol and triglyceride levels [2]: elevated cholesterol and triglyceride levels
